According to US11357232B2, “Methods of improving soil health, growth and vigor of perennial grass communities” (Edaphix, LLC, priority 2013, dated 2022):

How the values were obtained:
French marigold = details: in vivo; cited from earlier work
humans = details: U.S. EPA, 2005 carcinogen assessment guidelines; cited from earlier work
[1] = test system: seed geranium (Pelargonium x hortorum); details: in combination with nitrogen, phosphorus, and potassium; cited from earlier work
dandelions = test: Plant community response at Anaconda Smelter Superfund site; assay type: in vivo; details: where moderate to high levels of water soluble copper and zinc are measured in the soil
spotted knapweed = test: as above; assay type: in vivo; details: gradient of water soluble copper and zinc in soil
invasive plant species = test: Hypothetical dose-response testing of invasive species on a rangeland site (Example 21); assay type: in vivo; details: for biomass reduction: zinc-sensitive invasive species
Protocol: In this example, a rangeland site has become colonized by three invasive species. From dose-response testing it can be determined that 2 of the invasive species can be controlled by boron fertilization while the third is tolerant of boron, but not zinc. Of the two boron-sensitive invasive plant species, one is intolerant to a soil solution level of 3 mg boron per liter, while the other is sensitive to 7 milligrams per liter.

chlorophyllitic plants [2] = details: as little as; cited from earlier work
chlorophyllitic plants [3] = test: Photosynthetic disruption by glyphosate; assay type: in vivo
Protocol: Extensive research has documented that plants are often sensitive to relatively minute concentrations or exposures to unique synthetic compounds or combinations of naturally occurring elements, including micro-nutrients. For example, glyphosate (aka ROUNDUP®, a synthetic Monsanto product) is effective at causing photosynthetic disruption in chlorophyllitic plants at an application rate of as little as 0.75 pounds active ingredient per acre, which equates to only approximately 8 mg/square foot of application, equivalent to approximately 14 ppm application rate. The American Phytopathological Society (APS) reported that micronutrients are generally toxic when present in high amounts, although ‘high concentrations’ are not clearly defined, and little toxicity have been reported at exceptionally low micro-nutrient concentrations. This occurrence is known as micro-nutrient toxicity syndrome (MTS). […] In addition, plants can vary considerably from species to species in their susceptibility to nutrient toxicities. For example, Lee and others (1996) reported inducing seed geranium (Pelargonium x hortorum) micronutrient toxicity symptoms by applying nutrient solutions containing 0.5 mg/L B, Cu, or Zn, or as little as 0.25 mg/L Mo, in combination with nitrogen, phosphorus, and potassium. […]

[4] = test system: invasive species including cheatgrass, dandelions, and perennial noxious weeds; test: Plant community survey in area contaminated with copper from a copper smelter (Example 22); assay type: in vivo; details: soil copper contamination levels measured at various sites
Excerpt: (§5) The prevalence of various invasive species including cheatgrass, dandelions, and perennial noxious weeds (forbs) was observed and correlated with soil copper contamination levels measured at various sites.

native perennial grasses = details: in vivo
Excerpt: as §5

cheatgrass seed [5] = test: Greenhouse petri dish cheatgrass seed germination experiment; assay type: in vivo, Bromus tectorum
Protocol: Greenhouse petri dish experiments were completed to evaluate the effect of minute concentrations of boron on cheatgrass seed germination. Treatment concentrations (in addition to a zero treatment control) ranged from 10 to 50 mg B/L dissolved in distilled water. […] A follow-up experiment, essentially repeating the previously described petri dish experiment, with inclusion of a treatment rate as low as 5 mg/L, was completed. It was observed that cheatgrass seeds germinated at the 5 mg/L concentration, with death of the seedlings occurring within 7 days of germination (data not shown).

cheatgrass seed [6] = test: Benchtop seed germination in covered petri dishes with boron solutions (Example 8); assay type: in vivo, Bromus tectorum; details: boron 5 to 50 mg/L; 20 seeds; ten days after treatment
Protocol: Germination percentage of cheatgrass, dandelion, spotted knapweed and Kentucky bluegrass seed was measured ten (10) days after treatment with solutions of increasing boron concentration (FIG. 8). Cheatgrass appeared most sensitive to boron solution resulting in essentially 100% death of 20 cheatgrass seeds in covered petri dishes, when treated with solutions with boron concentration ranging from 5 to 50 mg/L. Control treatment using tap water successful germination percentage exceeded 56%.

[7] = test system: bluebunch wheatgrass (Pseudoroegenaria spicata); test: Greenhouse pot study watered with boron solutions; details: watered 3 times in final 2 weeks
Protocol: (§6) In a greenhouse pot study Kentucky bluegrass, bluebunch wheatgrass, cheatgrass, dandelion and spotted knapweed were grown from seed in potting soil for a period of approximately 26 weeks. Plants were watered with tap water for the first 24 weeks and then 3 times with boron solutions during the final 2 weeks of the study. Boron concentrations used were 5, 10, 25 and 50 mg B/L in addition to a tap water treatment and a commercial plant fertilizer solution.

[8] = test system: cheatgrass (Bromus tectorum); test: Cheatgrass-affected rangeland site two-year study, surface liquid boron applications (Example 5); assay type: in vivo; details: treated rangeland site
Excerpt: At a cheatgrass-affected rangeland site plant cover over a two-year study period is shown in response to water soluble soil boron concentrations resulting from surface liquid boron applications. Perennial grass cover in the treated rangeland site was increased to between 60 and 70 percent cover while cheatgrass cover decreased and was less than 3% (FIG. 5A) while adjacent untreated rangeland had less perennial grass cover and more cheatgrass after 2 years. (Soil sampling of the 0-6 inch depth was performed annually over a five year period to determine the water soluble boron concentrations both in the treated and untreated areas (FIG. 5B). Transects were used to measure plant cover annually at sites co-located with soil sampling.

perennial grass = test: Rangeland site five-year study, surface liquid boron applications (Example 4); assay type: in vivo; details: treated area
[9] = test system: cheatgrass (Bromus tectorum); test: Greenhouse pot study watered with boron solutions; assay type: in vivo; details: increasing boron concentrations
Excerpt: (§1) Greenhouse pot irrigation study, Bozeman, Mont. (FIG. 6).

[10] = test system: dandelion (Taraxacum officinale); test: Greenhouse pot study watered with boron solutions; assay type: in vivo
Excerpt: as §1

[11] = test system: spotted knapweed (Centaurea maculosa); test: Greenhouse pot study watered with boron solutions; assay type: in vivo
Excerpt: as §1

[12] = test system: Kentucky bluegrass (Poa pratensis); test: Greenhouse pot study watered with boron solutions; assay type: in vivo; details: increasing boron concentrations
Excerpt: as §1

[13] = test system: cheatgrass (Bromus tectorum); test: Field trial of boron fertilization in existing perennial grass communities near Belgrade, Mont.; assay type: in vivo
Protocol: (§2) Field trials were established in existing perennial grass communities near Belgrade, Mont., with high levels of cheatgrass and dandelion invasion into existing perennial grasses to examine use of boron (elemental symbol: B) fertilization for weed control. Minute amounts of boron, in doses as low as 5 mg B/L (soluble) or 2-3 lbs B (dry) active ingredient per acre, were applied to the plots.
(§3) Over the same period of time dandelion cover decreased from a mean of 59% to 15%, and cheatgrass cover decreased from a mean of 47% to 1%, while perennial grass cover increased from 42% to 71%.
(§4) Formulation D, Using the boron-containing compound Na2B4O7.10 H20, the 0.5 mg/L soil concentration applied in the field experiment described in Example 1 was attained by adding 2.55 grams per 100 square foot. The 50 mg/L soil concentration was attained by adding 255 grams per 100 square feet. These concentrations were applied either dry or by dissolving the boron-containing compound in water and then applied as a liquid to field plots.

[14] = test system: dandelion (Taraxacum officinale); test: as above; assay type: in vivo; details: over 5 year period after a single application of boron fertilizer; decreased from a mean of 59%
Protocol: as §2, §3, §4

[15] = test system: perennial grass (several species); test: as above; assay type: in vivo; details: over 5 year period after a single application of boron fertilizer; increased from 42%
Protocol: as §2, §3, §4

[16] = test system: bluebunch wheatgrass (Pseudoroegenaria spicata); details: in vivo
Protocol: as §6

[17] = test system: cheatgrass, dandelion, spotted knapweed and Kentucky bluegrass seed; test: Benchtop seed germination in covered petri dishes with boron solutions (Example 8); assay type: in vivo; details: boron concentrations reached 25 mg/L; ten days after treatment
Protocol: Germination percentage of cheatgrass, dandelion, spotted knapweed and Kentucky bluegrass seed was measured ten (10) days after treatment with solutions of increasing boron concentration (FIG. 8).

[18] = increasing boron concentrations
[19] = lowest boron solution concentration used, 5 mg B/L, watered 3 times in final 2 weeks

Compound: [Mo] [molybdenum]
- concentration inducing micro-nutrient toxicity (French marigold): 5 mg/L

Compound: borate salts
- carcinogenicity classification (humans): not likely to be carcinogenic to humans

Compound: [Zn] [zinc]
- nutrient solution concentration inducing micronutrient toxicity symptoms [1]: 0.5 mg/L
- occurrence of dandelions (dandelions): not found
- occurrence of spotted knapweed (spotted knapweed): found growing in soils with low to high levels
- biomass reduction (invasive plant species; 0.4 mg zinc per liter): 38%
- biomass reduction (invasive plant species; 0.9 milligrams per liter): 89%

Compound: O=C(O)CNCP(=O)(O)O [glyphosate]
- application rate effective at causing photosynthetic disruption (chlorophyllitic plants [2]): 0.75 pounds active ingredient per acre
- effective application rate, equivalent per area (chlorophyllitic plants [3]; equates to 0.75 pounds active ingredient per acre): approximately 8 mg/square foot
- effective application rate, equivalent (chlorophyllitic plants [3]; equivalent to 0.75 pounds active ingredient per acre): approximately 14 ppm

Compound: [Mn+2] [manganese]
- concentration inducing micro-nutrient toxicity (French marigold): 1 mg/L

Compound: [Cu] [copper]
- occurrence of invasive species versus soil copper [4]: primarily observed at lower copper contamination sites
- concentration inducing micro-nutrient toxicity (French marigold): 4 mg/L
- tolerance of native perennial grasses to soil copper (native perennial grasses): tolerate higher copper soil levels
- occurrence of dandelions (dandelions): not found
- occurrence of spotted knapweed (spotted knapweed): found growing in soils with low to high levels

Compound: boron
- concentration inducing micro-nutrient toxicity (French marigold): 0.5 mg/L
- cheatgrass seed germination (observation) (cheatgrass seed [5]; 5 mg/L, follow-up experiment): germinated
- death of seedlings, time after germination (cheatgrass seed [5]; 5 mg/L, follow-up experiment): ≤ 7 days
- cheatgrass seed germination (cheatgrass seed [5]; 10 to 50 mg B/L in distilled water, after 14 days): zero
- cheatgrass seed germination (cheatgrass seed [5]; boron solution 10 mg/L, 14 days post treatment (FIG. 2B)): 0%
- death of cheatgrass seeds (cheatgrass seed [6]): ~100%
- tolerated boron concentration [7]: ≥ 50 mg B/L
- cheatgrass cover [8]: less than 3%
- soil solution level to which invasive species is intolerant (invasive plant species; first boron-sensitive invasive species): 3 mg boron per liter
- soil solution level to which invasive species is sensitive (invasive plant species; second boron-sensitive invasive species): 7 milligrams per liter
- perennial grass densities (perennial grass): increase over time
- plant health index (color and vigor) response [9]: declined in vigor
- plant health index (color and vigor) response [10, 18]: declined in vigor
- phytotoxic response [10, 19]: marked phytotoxicity
- plant health index (color and vigor) response [11, 18]: declined in vigor
- rate of decline in plant health compared with other species ([11]; increasing solution boron concentration): most rapid decline in plant health
- phytotoxic response [11, 19]: marked phytotoxicity
- plant health index (color and vigor) response [12]: declined in vigor
- emerging or mature cheatgrass plants in plots ([13]; following growing seasons, doses as low as 5 mg B/L or 2-3 lbs B per acre): near-total absence
- mean cheatgrass cover ([13]; over 5 year period after a single application of boron fertilizer, decreased from a mean of 47%): 1%
- mean dandelion cover [14]: 15%
- perennial grass cover [15]: 71%
- plant health index (color and vigor) response [16]: little change in plant health
- germination of any species [17]: Very little germination
